Source: patent publication US20230292780A1, “LISTERIA INHIBITION BY MANGANESE DEPLETION” (Chr. Hansen A/S, priority 2020, published 2023)
Like-named read-outs stand apart in the source and are kept apart here.

What was measured:
[1] = system: L. lactis subsp. cremoris MG1363; settings: same CDM
Procedure: (§1) All the components were dissolved in 700 mL Milli-Q water to minimize traces of manganese, and the pH was set to 6.8 with KOH, after which the volume was adjusted to 1 L and filter-sterilized.
(§2) The following strains were tested: • 1. L. monocytogenes 1: DSM 15675 (obtainable from DSMZ) • 2. L. monocytogenes 2: mhl210 (obtainable from the Copenhagen University from Department of Veterinary and Animal Sciences, Section for Food Safety and Zoonoses) • 3. L. monocytogenes 3: ATCC 13932 (obtainable from ATCC) • 4. L. innocua BL 86/26 • 5. L. lactis subsp. cremoris MG1363 (MoBiTec GmbH, Germany)
(§3) L. innocua BL 86/26 and L. lactis MG1363 were pre-grown from -80° C. glycerol stocks in M17 broth with 1% (w/v) glucose. The three L. monocytogenes were pre-grown from −80° C. glycerol stocks in BHI. All cultures were incubated overnight as standing cultures at 30° C., resulting in stationary phase cultures. The next day, 1 mL of each culture was washed twice with and resuspended in manganese-deficient CDM to remove residual manganese. 1 μL of each washed culture was then used to inoculate, in triplicate, a well of a 96-wells plate containing 200 μL CDM supplemented with 1% glucose diluted from a 50% (w/v) stock solution dissolved in demineralized water, in which manganese was left out, or added to a final concentration of 0.00006, 0.0006, 0.006, 0.06 or 0.6 mg L^−1 manganese. Growth was followed by monitoring the absorbance at 600 nm at 30° C. in a Synergi H1 reader (BioTek, Winooski, VT, USA). This experiment was repeated twice on separate days to check reproducibility.

[2] = system: four Listeria spp. strains (L. monocytogenes DSM 15675, mhl210, ATCC 13932; L. innocua BL 86/26); settings: for growth (absorbance at 600 nm): 30° C.
Procedure: as §1, §2, §3

[3] = system: L. innocua BL 86/26; settings: CDM, 30° C.
Procedure: (§4) CDM for growth of Lactococcus lactis and Listeria innocua was prepared as described in Example 1. As to Streptococcus thermophilus, a second Mn-free CDM supporting it growth was prepared essentially as described by Otto et al. (“The relation between growth rate and electrochemical proton gradient of Streptococcus cremoris.” FEMS Microbiology Letters 16.1 (1983): 69-74) with the following exceptions: All metals were used in the same final concentrations as listed in Table 4, and all amino acids were added to a final concentration of 0.08 g/L except for cysteine, which consisted of a final concentration of 0.5 g/L. Wolfe's vitamin solution was used in which DL-Ca-pantothenate was increased to have a final concentration of 400 mg/L, and urea and NaHCO3 were added to a final concentration of 0.12 and 0.42 g, respectively.
(§5) The following strains were tested: • 1. L. lactis single strain isolated from Fresco 1000NG-10 (Chr. Hansen A/S, Denmark) • 2. S. thermophilus single strain isolated from Fresco 1000NG-10 (Chr. Hansen A/S, Denmark) • 3. L. innocua BL 86/26
(§6) All strains were pre-grown to stationary phase cultures from −80° C. glycerol stocks in M17 broth with 1% (w/v) glucose, as standing cultures at 30° C. 1 mL of each culture was then washed twice with and resuspended in manganese-deficient CDM to remove residual manganese. 1 μL of each washed culture was then used to inoculate, in triplicate, a well of a 96-wells plate containing 200 μL CDM supplemented with 1% (w/v) glucose diluted from a 50% (w/v) stock solution dissolved in Milli-Q water, and in which manganese was left out, or added to a final concentration of 0.00006, 0.0006, 0.006, 0.06 or 0.6 mg L-1 manganese. Growth was followed by monitoring the absorbance at 600 nm at 30° C. in a Synergi H1 reader (BioTek, Winooski, VT, USA).

[4] = system: S. thermophilus single strain isolated from Fresco 1000NG-10; settings: second Mn-free CDM, 0 to 0.6 ppm manganese, 30° C.
Procedure: as §4, §5, §6

[5] = system: L. lactis single strain isolated from Fresco 1000NG-10; settings: CDM, 0 to 0.6 ppm manganese, 30° C.
Procedure: as §4, §5, §6

SMILES: [Mn+2] [manganese]
- growth on depletion of manganese [1]: hardly inhibited
- growth (absorbance at 600 nm) ([2]; 0.0006 ppm manganese added to CDM): severely hampered
- growth (absorbance at 600 nm) ([2]; 0.006 ppm manganese added to CDM): some growth defects
- growth (absorbance at 600 nm) ([2]; 0.06 ppm manganese added to CDM): no growth defect
- growth (absorbance at 600 nm) ([2]; 0.6 ppm manganese added to CDM): no growth defect
- manganese concentration below which inhibition of Listeria can be seen ([2]; CDM): below 0.006 ppm
- manganese concentration that restored the growth of Listeria ([2]; CDM): above 0.006 ppm
- time the inhibitory effect due to low manganese levels is maintained ([2]; low manganese levels in CDM): at least 20 hours
- manganese required for growth to occur [3]: more than 0.0006 ppm
- growth on depletion of manganese [4]: minimally inhibited
- growth on depletion of manganese [5]: minimally inhibited
